Data published in patent US20190225644A1, “MRNA CAP ANALOGS AND METHODS OF MRNA CAPPING” (ModernaTX, Inc., priority 2015, published 2019).
Where “and” joins values, the source holds several entries; their conditions need not be identical. Equal values may be shown once. Read-outs that look alike come from different tables or passages of the source.

Legend:
[1] = system: HeLa Lysate; test: Cap competition assay in kinetic cell free in vitro translation (free cap analogs); format: biochemical; conditions: free cap analog 0-100 uM against Cap1-tipped eGFP modRNA, fluorescence plateau
Procedure: The in vitro translation assay was conducted with the HeLa 1-step coupled IVT kit (ThermoFisher Scientific, Waltham, Mass.) according to the manufacturer's instructions to assess performance of new cap analogs as free compounds or as an integral part of capped mRNA. Cap analogs with affinity to eIF4E protein may reduce protein synthesis rate in cell-free translation. Further, RNAs containing such cap analogs (“Cap-modRNA”) show different potency of protein synthesis in cell-free translation.
For competition assays, the total volume of the cell-free translation reaction was increased to 27.8 uL by addition of either water or diluted free CAP analogs in water. The stock concentration of the free CAP analogs was 1 mM. With two-fold dilutions in water, the concentration was reduced sequentially. […] The CAP analogs used in this study were either commercial products serving as reference material (TriLink, San Diego, Calif.) or compounds disclosed herein. It is hypothesized that the small molecule cap analogs interfere with the assembly of the “closed loop” in a Kd-dependent fashion.
After the fluorescent signal in cell-free translation reaction reached a stable plateau, absolute values thereof were transferred to a statistical analysis program (GraphPad Software, La Jolla, Calif.) and curve fitting or IC50 calculations were derived with settings according to the instructions of the manufacturer.
The results from the cap competition assays are illustrated in FIGS. 1A-1C and 2A-2D. In this study, each of the modRNAs used comprises 1-methyl-pseudouridine, which replaces each uridine in the RNA sequence and 5-methyl cytidine, which replaces each cytidine in the RNA sequence. Further, Table 11 includes the IC50 values of certain compounds of the disclosure.

[2] = biological target: T1, eIF4E (Homo sapiens, UniProt P06730)
T1 sequence (P06730 32-217): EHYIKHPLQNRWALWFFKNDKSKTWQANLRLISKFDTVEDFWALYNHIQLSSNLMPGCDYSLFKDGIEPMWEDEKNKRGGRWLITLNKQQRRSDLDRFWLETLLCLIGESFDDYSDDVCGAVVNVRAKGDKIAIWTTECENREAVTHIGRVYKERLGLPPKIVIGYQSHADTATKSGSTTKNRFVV

[3] = biological target: T1, eIF4E; test: Binding affinities to eIF4E using surface plasmon resonance (SPR); conditions: for koff: read-out: koff (s^−1)
[4] = biological target: T1, eIF4E; test: biochemical

| IC50 [1] [µM] | koff [2] [s⁻¹] | Kd [4] | Structure (SMILES) | τ [3] [s] | koff [3] [s⁻¹] |
| --- | --- | --- | --- | --- | --- |
| 35 |  |  | Cn1c[n+]([C@@H]2O[C@H](COP(=O)(O)OP(=O)([O-])OP(=O)(O)OC[C@H]3O[C@@H](n4cnc5c(=O)[nH]c(N)nc54)[C@H](O)[C@@H]3O)[C@@H](O)[C@H]2O)c2nc(N)[nH]c(=O)c21 [Cap0, m7GpppG, reference compound] |  |  |
| 25 | 0.08 |  | Nc1nc2c(ncn2[C@@H]2O[C@H](COP(=O)(O)OP(=O)(O)OP(=O)(O)OC[C@H]3O[C@@H](c4cn(CCOc5ccc(Cl)cc5)c5c(=O)[nH]c(N)nc45)[C@H](O)[C@@H]3O)[C@@H](O)[C@H]2O)c(=O)[nH]1 [Compound 005-1] |  |  |
|  |  | 0.5 to 1.1 µM | BP(=O)(OP(=O)([O-])OC[C@H]1O[C@@H](n2c[n+](C)c3c(=O)[nH]c(N)nc32)[C@H](OC)[C@@H]1O)OP(=O)(O)OC[C@H]1O[C@@H](n2cnc3c(=O)[nH]c(N)nc32)[C@H](O)[C@@H]1O (stereo partly drawn) [Compound 005-3] |  |  |
| 2 | 0.04 | 0.2 µM | CO[C@@H]1[C@H](O)[C@@H](COP(=O)(O)OP(=O)([O-])OP(=O)(O)OC[C@H]2O[C@@H](n3cnc4c(=O)[nH]c(N)nc43)[C@H](O)[C@@H]2O)O[C@H]1n1c[n+](CCOc2ccc(Cl)cc2)c2c(=O)[nH]c(N)nc21 [Compound 005-5] |  |  |
|  | 0.41 | 1.1 µM | CO[C@@H]1[C@H](O)[C@@H](COP(=O)(O)OP(=O)([O-])OP(=O)([O-])OP(=O)(O)OC[C@H]2O[C@@H](n3c[n+](C)c4c(=O)[nH]c(N)nc43)[C@H](O)[C@@H]2O)O[C@H]1n1c[n+](C)c2c(=O)[nH]c(N)nc21 [Compound 005-6] |  |  |
|  | 0.26 | 2.7 µM | CO[C@@H]1[C@H](O)[C@@H](COP(=O)([O-])OP(=O)([O-])OP(=O)(O)OC[C@H]2O[C@@H](n3c[n+](C)c4c(=O)[nH]c(N)nc43)[C@H](O)[C@@H]2O)O[C@H]1n1c[n+](C)c2c(=O)[nH]c(N)nc21 [Compound 005-7] |  |  |
|  | 3.8 | 75 µM | CO[C@@H]1[C@H](O)[C@@H](COP(=O)([O-])OP(=O)([O-])OC[C@H]2O[C@@H](n3c[n+](C)c4c(=O)[nH]c(N)nc43)[C@H](O)[C@@H]2O)O[C@H]1n1c[n+](C)c2c(=O)[nH]c(N)nc21 [Compound 005-8] |  |  |
| 9 | 0.41 | 1.1 µM and 1 µM | C[n+]1cn([C@@H]2O[C@H](COP(=O)(O)OP(=O)([O-])OP(=O)([O-])OP(=O)(O)OC[C@H]3O[C@@H](n4c[n+](C)c5c(=O)[nH]c(N)nc54)[C@H](O)[C@@H]3O)[C@@H](O)[C@H]2O)c2nc(N)[nH]c(=O)c21 [Compound 005-9] |  |  |
| 92 |  |  | C[n+]1cn([C@@H]2O[C@H](COP(=O)(O)OP(=O)([O-])OP(=O)(O)OC[C@H]3O[C@@H](n4cnc5c(=O)[nH]c(N)nc54)[C@H](O)[C@@H]3O)[C@@H](O)[C@@H]2O)c2nc(N)[nH]c(=O)c21 [Compound 005-11] |  |  |
| 21 | 0.9 | 4.3 µM and 4 µM | COCCO[C@H]1[C@H](O)[C@@H](COP(=O)(O)OP(=O)([O-])OP(=O)(O)OC[C@H]2O[C@@H](n3cnc4c(=O)[nH]c(N)nc43)[C@H](O)[C@@H]2O)O[C@H]1n1c[n+](C)c2c(=O)[nH]c(N)nc21 [Compound 005-12] |  |  |
| 318 |  | 218 µM | C=CCn1c(=O)n([C@@H]2O[C@H](COP(=O)(O)OP(=O)(O)OP(=O)(O)OC[C@H]3O[C@@H](n4cnc5c(=O)[nH]c(N)nc54)[C@H](O)[C@@H]3O)[C@H]3OC(C)(C)O[C@@H]32)c2nc(N)[nH]c(=O)c21 [Compound 005-13] |  |  |
| 48 | 1.7 | 6.4 µM and 4 µM | CO[C@@H]1[C@H](O)[C@@H](COP(=O)(O)OP(=O)([O-])OP(=O)(O)OC[C@H]2O[C@@H](n3cnc4c(=O)[nH]c(N)nc43)[C@H](O)[C@@H]2O)O[C@H]1n1c[n+](C)c2c(=O)[nH]c(N)nc21 [Compound 005-14] |  |  |
|  | 3.8 | 75 µM | C[n+]1cn([C@@H]2O[C@H](COP(=O)([O-])OP(=O)([O-])OC[C@H]3O[C@@H](n4c[n+](C)c5c(=O)[nH]c(N)nc54)[C@H](O)[C@@H]3O)[C@@H](O)[C@H]2O)c2nc(N)[nH]c(=O)c21 [Compound 005-15] |  |  |
|  | 0.94 | 4.2 µM | COCCO[C@@H]1[C@H](O)[C@@H](COP(=O)(O)OP(=O)([O-])OP(=O)(O)OC[C@H]2O[C@@H](n3cnc4c(=O)[nH]c(N)nc43)[C@H](OC)[C@@H]2O)O[C@H]1n1c[n+](C)c2c(=O)[nH]c(N)nc21 [Compound 005-19] |  |  |
|  |  | 3.58 µM | C[n+]1cn([C@H]2C[C@H](O)[C@@H](COP(=O)(O)OP(=O)([O-])OP(=O)(O)OC[C@H]3O[C@@H](n4cnc5c(=O)[nH]c(N)nc54)[C@H](O)[C@@H]3O)O2)c2nc(N)[nH]c(=O)c21 [Compound 005-31] |  |  |
| 33 | 0.6 | 8 to 9 µM and 9 µM | C[n+]1cn([C@H]2CN(CCO)C[C@@H](COP(=O)([O-])OP(=O)(O)OP(=O)(O)OC[C@H]3O[C@@H](n4cnc5c(=O)[nH]c(N)nc54)[C@H](O)[C@@H]3O)O2)c2nc(N)[nH]c(=O)c21 [Compound 006-3] |  |  |
|  | 1 | 9.1 µM | C#CCN1C[C@@H](COP(=O)([O-])OP(=O)(O)OP(=O)(O)OC[C@H]2O[C@@H](n3cnc4c(=O)[nH]c(N)nc43)[C@H](O)[C@@H]2O)O[C@@H](n2c[n+](C)c3c(=O)[nH]c(N)nc32)C1 [Compound 006-27] |  |  |
|  |  | 1.7 µM | BP(=O)(OP(=O)([O-])OC[C@H]1O[C@@H](n2cnc3c(=O)[nH]c(N)nc32)[C@H](O)[C@@H]1O)OP(=O)(O)OCC1CN(C)CC(n2c[n+](C)c3c(=O)[nH]c(N)nc32)O1 (stereo partly drawn) [Compound 006-30] |  |  |
|  | 0.33 | 2.4 µM | C[n+]1cn(C2CN(Cc3ccccc3)CC(COP(=O)(O)OP(=O)([O-])OP(=O)([O-])OC[C@H]3O[C@@H](n4c[n+](C)c5c(=O)[nH]c(N)nc54)[C@H](O)[C@@H]3O)O2)c2nc(N)[nH]c(=O)c21 (stereo partly drawn) [Compound 006-31] |  |  |
|  |  | 12 µM | C[n+]1cn(C(CO)OC(CO)COP(=O)(O)OP(=O)(O)OP(=O)(O)OC[C@H]2O[C@@H](n3cnc4c(=O)[nH]c(N)nc43)[C@H](O)[C@@H]2O)c2nc(N)[nH]c(=O)c21 (stereo partly drawn) [Compound 006-36] |  |  |
|  | 1.5 | 6.7 to 8.7 µM | CO[C@@H]1[C@H](O)[C@@H](COP(=O)(O)OP(=O)([O-])OP(=O)(O)OCC2CN(C)CC(n3c[n+](C)c4c(=O)[nH]c(N)nc43)O2)O[C@H]1n1cnc2c(=O)[nH]c(N)nc21 (stereo partly drawn) [Compound 006-39] |  |  |
|  | 0.34 | 1.7 µM | CO[C@@H]1[C@H](O)[C@@H](COP(=O)(O)OP(=O)([O-])OP(=O)(O)OCC2CN(Cc3ccccc3)CC(n3c[n+](C)c4c(=O)[nH]c(N)nc43)O2)O[C@H]1n1cnc2c(=O)[nH]c(N)nc21 (stereo partly drawn) [Compound 006-40] |  |  |
| 179 | 1 | 11 µM | C[n+]1cn([C@@H]2O[C@H](COP(=O)(O)OP(=O)(O)OP(=O)(O)OC[C@H]3O[C@@H](n4cnc5c(=O)[nH]c(N)nc54)[C@H](O)[C@@H]3O)[C@@H](O)[C@@]2(C)O)c2nc(N)[nH]c(=O)c21 [Compound 007-1] |  |  |
|  | 0.057 | 0.1 µM | C[C@@]1(O)[C@H](O)[C@@H](COP(=O)(O)OP(=O)(O)OP(=O)(O)OC[C@H]2O[C@@H](n3cnc4c(=O)[nH]c(N)nc43)[C@H](O)[C@@H]2O)O[C@H]1n1c[n+](CCOc2ccc(Cl)cc2)c2c(=O)[nH]c(N)nc21 [Compound 007-37] |  |  |
|  |  | 11 µM | CO[C@@H]1[C@H](O)[C@@H](COP(=O)(O)OP(=O)([O-])OP(=O)(O)OCC2O[C@@H](n3c[n+](C)c4c(=O)[nH]c(N)nc43)[C@](C)(O)[C@@H]2O)O[C@H]1n1cnc2c(=O)[nH]c(N)nc21 (stereo partly drawn) [Compound 007-38] |  |  |
|  |  | 110 µM | C[n+]1cn([C@@H]2O[C@H](COP(=O)([O-])OCCOCCOP(=O)([O-])OC[C@H]3O[C@@H](n4c[n+](C)c5c(=O)[nH]c(N)nc54)[C@H](O)[C@@H]3O)[C@@H](O)[C@H]2O)c2nc(N)[nH]c(=O)c21 [Compound 008-2] |  |  |
|  |  | 300 µM | C[n+]1cn([C@@H]2O[C@H](COP(=O)(O)OCCN(CCOP(=O)(O)OC[C@H]3O[C@@H](n4c[n+](C)c5c(=O)[nH]c(N)nc54)[C@H](O)[C@@H]3O)C(=O)OC(C)(C)C)[C@@H](O)[C@H]2O)c2nc(N)[nH]c(=O)c21 [Compound 008-25] |  |  |

| Structure (SMILES) | IC50 [1] [µM] | koff [2] [s⁻¹] | Kd [4] | τ [3] [s] | koff [3] [s⁻¹] |
| --- | --- | --- | --- | --- | --- |
| BP(=O)(OP(=O)([O-])OC[C@H]1O[C@@H](n2c[n+](CCOc3ccc(Cl)cc3)c3c(=O)[nH]c(N)nc32)[C@H](OC)[C@@H]1O)OP(=O)(O)OC[C@H]1O[C@@H](n2cnc3c(=O)[nH]c(N)nc32)[C@H](O)[C@@H]1O (stereo partly drawn) [Compound 005-2] |  |  | 0.1 µM | 83.33 | 0.012 |
| BP(=O)(OP(=O)([O-])OC[C@H]1O[C@@H](n2c[n+](C)c3c(=O)[nH]c(N)nc32)[C@H](O)[C@@H]1O)OP(=O)(O)OC[C@H]1O[C@@H](n2cnc3c(=O)[nH]c(N)nc32)[C@H](O)[C@@H]1O (stereo partly drawn) [Compound 005-32] |  |  | 0.33 µM | 9.09 | 0.11 |
